Consider six molecules from PMC4666646, “The Structure of the RNA-Dependent RNA Polymerase of a Permutotetravirus Suggests a Link between Primer-Dependent and Primer-Independent Polymerases” (PLoS Pathogens, 2015).

The target in series [1] is T1, TaVpol (TaV RdRP domain) (Thosea asigna virus, UniProt Q6A562). The series is described as follows: X-ray crystal structure, […] Å. The class given is binding. The note with it: MgCl2; triphosphate in rNTP tunnel (nucleoside disordered); second site in thumb subdomain (M556, T560, D563, E601). More on the design: RdRP domain, first 674 residues of replicase ORF1 (1257 residues), 75 kDa fragment released by proteolysis in Hi5 insect cells; N-terminal 6xHis tag and TEV site, tag cut for biochemical assays; dimer.

Series [2] addresses T1, TaVpol (TaV RdRP domain). The note with it: MnCl2, ssRNA template 5'-[…]; active site of molecule B, base stacked on Y611 and F613 of loop λ6.
The target of series [3] is T1, TaVpol (TaV RdRP domain). The series can be described thus: X-ray crystal structure, […] Å. Format: binding. More on the design: RdRP domain, first 674 residues of replicase ORF1 (1257 residues), 75 kDa fragment released by proteolysis in Hi5 insect cells; N-terminal 6xHis tag and TEV site, tag cut for biochemical assays; dimer. The note with it: MgCl2; triphosphate in rNTP tunnel (nucleoside disordered); second site in thumb subdomain (M556, T560, D563, E601). This is another data set of the same source.

Series [4] has as its target TaVpol (RdRP domain of Thosea asigna virus ORF1, first 674 residues) (Thosea asigna virus). The series is described as follows: SEC; analytic chromatography on a calibrated Superdex 200 5/150 column of purified proteins; for TaVpol also the final purification step on Superdex 200 HR 10/300 (50 mM MES pH 6.0, 500 mM NaCl, 10% glycerol, 5 mM DTT).
The target in series [5] is T2, TaVpol (RdRP-containing N-terminal fragment of ORF1) (Thosea asigna virus, UniProt Q6A562 1-674). The series is described as follows: X-ray crystallography; Complex formation: 1 mg/ml TaVpol, 1:1.5 protein:RNA, 50 mM MES pH 6.0, 200 mM NaCl, 10% glycerol, 5 mM DTT, 30 C 30 min; crystals at 20 C in 12% PEG 8K, 750 mM Li2SO4. The note with it: protein: recombinant; tags: N-terminal 6xHis with TEV site (tag not removed for RNA complexes as far as stated); chain copies: 2; single strand.

For series [6], the target named is T2, TaVpol (RdRP-containing N-terminal …). The series can be described thus: X-ray crystallography; ATP, CTP, 5 mM MnCl2; 3.5 A; RNA density weak, only phosphate peaks in template channel, RNA not built; Complex formation: 1 mg/ml TaVpol, 1:1.5 protein:RNA, 50 mM MES pH 6.0, 200 mM NaCl, 10% glycerol, 5 mM DTT, 30 C 30 min; crystals at 20 C in 12% PEG 8K, 750 mM Li2SO4. Conditions: protein: recombinant; tags: N-terminal 6xHis with TEV site (tag not removed for RNA complexes as far as stated); chain copies: 2; single strand.

For `Nc1nc2c(ncn2[C@@H]2O[C@H](COP(=O)(O)OP(=O)(O)OP(=O)(O)O)[C@@H](O)[C@H]2O)c(=O)[nH]1` [GTP], the “X-ray crystal structure, 2.3 Å” value at TaVpol (TaV RdRP domain) [1] is “TaVpol-GTP and TaVpol-CTP co-crystals were also obtained in presence of MgCl2”.

For the molecule `Nc1ncnc2c1ncn2[C@@H]1O[C@H](COP(=O)(O)OP(=O)(O)OP(=O)(O)O)[C@@H](O)[C@H]1O` [ATP], at TaVpol (TaV RdRP domain) [2], the “X-ray crystal structure, 3.5 Å” value is “This density, was interpreted as the presence of a bound ATP molecule”.

On to `Nc1ccn([C@@H]2O[C@H](COP(=O)(O)OP(=O)(O)OP(=O)(O)O)[C@@H](O)[C@H]2O)c(=O)n1` [CTP], for which the “X-ray crystal structure, 2.25 Å” value at TaVpol (TaV RdRP domain) [3] is “TaVpol-GTP and TaVpol-CTP co-crystals were also obtained in presence of MgCl2”.

By stoichiometry N is commonly meant a count of units in the complex or per binding partner. The molecule “TaVpol (RdRP domain of Thosea asigna virus ORF1, first 674 residues) (domain or fragment)” had a stoichiometry N in series [4] of 2.

B1: 25-nt ssRNA template (ssRNA)
RNA: GUAUACUACACCCAUUCGACUCCUG
Regarding B1, the binding result in series [5] is given as “binds”.

B2: 15-nt ssRNA template (ssRNA)
RNA: CCCAUUCGACUCCUG
On to B2, for which the binding result in series [6] is on record as “binds”.
